Assay results: US20230257429A1, “PEPTIDE ADJUVANT FOR ITS THERAPEUTIC APPLICATIONS IN VIRAL AND TUMOUR VACCINE DEVELOPMENT AND CANCER IMMUNOTHERAPY AND AUTOIMMUNE DISEASE DIAGNOSIS AND TREATMENTS” (National University of Singapore, priority 2020, published 2023)
Entries after “also recorded” stand apart in the source; their conditions may differ. Ends that are not written are not given here.

What was measured:
MyD88 = target: T1, MyD88 (Homo sapiens, UniProt Q99836); assay: MyD88 inhibitor pre-treatment before stimulation, cytokine ELISA; format: cell-based; conditions: monocytes, st-2825 30 μM, 1 hr pre-incubation
T1 construct: endogenous in cells; host or cells: PBMC / monocytes from blood donors
Method: In some experiments, cells were pre-treated with the MyD88 inhibitor st-2825 (MedChemExpress) or the Caspase-1 inhibitor Ac-YVAD (InvivoGen) for 1 hr before stimulation with TLR ligands or the purified nuclear proteins. In some other experiments, cells were pre-incubated for 1 hr with anti-TLR2, TLR4 and TLR5 antibodies (InvivoGen) before stimulation. The optimal st-2825 and Ac-YVAD concentrations were determined based on both their effects on cell viability and LPS-induced cytokine production. Cell viability was determined using the CELLTITER 96® AQueous One Solution Cell Proliferation (MTS) Assay (Promega).
We then examined whether NCL still induces cytokines when MyD88 is inhibited [Kawai, T. and Akira, S., Semin Immunol 19: 24-32 (2007)]. A MyD88 inhibitor st-2825 was used in this experiment (FIG. 3A). Its optimal concentration was, after titration of its cytotoxicity and its inhibition of LPS-induced cytokine production, determined to be 30 μM (FIG. 5). […] The inhibition of TNFα production by Ac-YVAD could be explained by its blocking autocrine monocytes activation through the IL-1β these cells produce (FIG. 4).

monocytes = assay: Monocyte activation, TNFα and IL-1β ELISA; format: cell-based, human; conditions: for TNFα induction from monocytes (7 NCL peptides): peptides 50 or 200 μg/ml; for TNFα and IL-1β production from monocytes: protein coated on plates, ELISA
Method: Buffy coat fractions were obtained from healthy blood donors at the Singapore Health Sciences Authority, with Institutional ethics approval, and PBMC were isolated using Ficoll-Paque (GE Healthcare). To isolate monocytes, PBMC were re-suspended to 1×10^7 cells/ml in the RPMI medium contained 5% (v/v) BCS and incubated for 1 hr in T75 flasks (20 ml/flask). Monocytes that adhered were harvested. To culture macrophages and DC [Cao, W., et al., Blood 107: 2777-2785, (2006), incorporated herein by reference], monocytes were resuspended to 1×10^6 cells/ml and cultured in 6-well plates (2 ml/well). Macrophages were cultured by adding M-CSF to 20 ng/ml and DC were cultured with 20 ng/ml GM-CSF and 40 ng/ml IL-4. M-CSF, GM-CSF and IL-4 were obtained from R&D Systems (Mineapolis, Minn.). Cells were cultured for 6 days with half of the media being replenished every two days.
[…] Where TLR ligands were used to stimulate these cells, they were added to the media: LPS (500 ng/ml for DC and macrophages and 10 ng/ml for PMBC and monocytes, InvivoGen), flagellin (1 μg/ml, InvivoGen), lipoteichic acid (LTA, 10 μg/ml). Cell activation was determined by measuring TNFα and IL-1β in the culture media using ELISA kits (Invitrogen).

PBMC [1] = assay: Peptide binding to and penetration of PBMC, flow cytometry; format: cell-based, human; conditions: 1 hr at 4° C., fixed/permeabilized, streptavidin-AF488
Method: PBMC re-suspended in 100 μl macrophage serum free media (3×10^6/ml) were incubated with different peptides (200 μg/ml). PBMC (100 μl) were incubated with the peptides for 1 hr at 37° C. or 4° C. Cells were washed twice in 2% FBS/PBS and incubated with streptavidin-AF488 and Zombie (NIR) Fixable viability stain-APC-Cy7 for 30 min at 4° C. Cells were then fixed with 1% PFA for 30 min at room temperature and analysed using the Fortessa analyser (BD). In some experiments, PBMC were, after incubation with peptides, incubated with Zombie (NIR) Fixable viability stain (APC-Cy7) for 30 min at 4° C. Cells were then fixed and permeabilized with BD CYTOFIX/CYTOPERM™ Kit for 20 min at 4° C., and then incubated with streptavidin-AF488 for 30 min at 4° C. In some experiments, PBMC were, after incubation with the peptides, stained with fluorescent mouse antibodies specific for monocytes (CD14/BV711), T cells (CD3/PerCP-Cy5-5) and B cells (CD19/Pacific blue). Cells were then stained with Zombie (NIR) Fixable viability stain-APC-Cy7 and streptavin-AF488, with or without membrane permeabilization. In these experiments, monocytes, T cells and B cells were separately gated to detect surface peptide binding and intracellular peptide penetration.

TLR2 [2] = target: T2, TLR2 (Homo sapiens, UniProt O60603); assay: TLR2 binding assay (ELISA plate); design: purchased R&D Systems; conditions: for peptide binding to coated TLR2: biotin peptides at increasing concentrations; for TLR2 binding to coated NCL-HA mutants (summary experiment): protein coated 10 μg/ml, TLR2 2 μg/ml
TLR2 [3] = target: T2, TLR2; assay: TLR and NF-κB-luciferase assay in 293T cells, TLR2/TLR1/TLR6/TLR10; format: cell-based; design: expressed in transfected cells; host or cells: human embryonic kidney 293T cells; conditions: peptides 200 μg/ml, 24 hr
Method: TLR-mediated NF-κB activation was determined using a Dual Luciferase Reporter Assay (Promega), in which two luciferase reporter plasmids were used. […] Transfection was performed using the TurboFect Transfection Reagent (Thermo Fisher Scientific). After 24 hr, cells were harvested and cultured for 24 hr in 96-well plates coated with the purified proteins or, as controls, cultured in blank plates but stimulated with TLR ligands. Cells were lysed to measure both firefly and Renilla luciferase activities and, in each sample, the firefly activity was normalized to the Renilla luciferase activity and expressed as relative NF-κB activation.
TLRs and, where it required, co-receptors were co-transfected in a total of 4 combinations, i.e. TLR2/1/6/10, TLR4/CD14/MD2, TLR5, or TLR3/7/8/9. Two luciferase expression vectors were used: one expresses the firefly luciferase under 5 repeats of the NF-κB gene promoter and the other expresses the Renilla luciferase under the constitutively active CMV promoter (FIG. 3A).

PBMC [4] = assay: PBMC activation, TNFα and IL-1β ELISA; format: cell-based, human; design: PBMC activation (TNFα) by FBRL peptides: dose or concentration left out as unconfirmed; conditions: peptides added to 50 or 160, 24 hr
[5] = test system: autologous CD4 and CD8 T cells; assay: Antigen-loaded DC co-culture with autologous lymphocytes, proliferation; format: cell-based, human; conditions: DC:T 1:5, 2 weeks co-culture, CellTrace Violet
Method: PBMC were isolated from healthy blood donors from which monocytes were isolated to culture DC and the remaining cells (mostly lymphocytes) were stored frozen as a source of autologous lymphocytes. DC were then incubated for 24 hr with P2+G, IPA1E2 or the IPA1E2-P2+G fusion polypeptide (SEQ ID NO: 58) in round bottom 96-well plates (5×10^4 cells/well) without adding additional adjuvants. The frozen lymphocytes were revived and labelled with CellTrace Violet (2.5 μM) for 10 min at 37° C. and then added to the DC wells at 2.5×10^5 cells/well (DC:T ratio=1:5). After 2 weeks of co-culture, the proliferation of CD4+ and CD8+ T cell and CD19+ B cell was analyzed by flow cytometry.

[6] = target: T3, Recombinant human TLR2-10×His (R&D Systems) (human, UniProt O60603 21-590); assay: ELISA: biotin peptide on coated TLR2
T3 construct: Bought protein; also called His-tagged TLR2
T3 sequence (O60603 other isoform, or with tags, fused parts or gaps limits assumed): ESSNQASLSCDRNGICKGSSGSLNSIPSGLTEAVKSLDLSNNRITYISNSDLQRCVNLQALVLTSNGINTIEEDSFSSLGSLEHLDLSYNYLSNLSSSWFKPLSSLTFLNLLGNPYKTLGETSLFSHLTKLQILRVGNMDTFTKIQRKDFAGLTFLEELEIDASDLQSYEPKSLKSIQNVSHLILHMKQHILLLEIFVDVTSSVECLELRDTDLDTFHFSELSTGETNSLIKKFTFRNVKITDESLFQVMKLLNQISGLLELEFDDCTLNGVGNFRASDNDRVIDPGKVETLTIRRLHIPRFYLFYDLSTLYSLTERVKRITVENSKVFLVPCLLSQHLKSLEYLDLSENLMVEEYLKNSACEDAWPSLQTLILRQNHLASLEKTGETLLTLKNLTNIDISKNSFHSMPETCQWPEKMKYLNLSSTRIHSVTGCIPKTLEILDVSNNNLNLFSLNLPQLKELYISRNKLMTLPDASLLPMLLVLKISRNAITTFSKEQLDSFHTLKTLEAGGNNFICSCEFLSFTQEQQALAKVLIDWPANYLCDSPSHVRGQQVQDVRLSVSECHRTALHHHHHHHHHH

T1 sequence (Q99836 whole entry): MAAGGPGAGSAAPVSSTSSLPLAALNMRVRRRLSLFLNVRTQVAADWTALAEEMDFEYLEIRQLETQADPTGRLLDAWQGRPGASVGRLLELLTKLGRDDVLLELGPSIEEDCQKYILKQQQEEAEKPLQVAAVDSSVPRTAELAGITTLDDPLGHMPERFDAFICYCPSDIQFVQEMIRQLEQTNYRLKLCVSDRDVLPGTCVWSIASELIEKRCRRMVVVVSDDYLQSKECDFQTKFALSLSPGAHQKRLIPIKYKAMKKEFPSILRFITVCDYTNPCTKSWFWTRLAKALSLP

NC(=O)[C@H]1CCS[C@@H]2C[C@]3(CCCN3C(=O)Cc3ccc(NC(=O)COc4ccc(Cl)cc4Cl)cc3)C(=O)N12 [st-2825]
inhibition of HMGB1 and LPS induction of TNFα and IL-1β (MyD88): also inhibited | inhibition of NCL induction of TNFα and IL-1β (MyD88): partially but significantly inhibited

GGFGGRGGGRGGFGGRGGGRGGRGGFGGRGRG (NCL-P1)
cytokine induction, soluble versus coated (immobilized) form (monocytes; monocytes, 24 hr): induced more cytokines than immobilized peptides | TNFα induction from monocytes (7 NCL peptides) (monocytes; 24 hr): induced TNFα | TNFα induction from monocytes at lower concentrations (monocytes; soluble peptide 10 and 20 μg/ml): induced little TNFα | TNFα induction from monocytes at higher concentrations (monocytes; soluble peptide 80 and 160 μg/ml): strongly induced TNFα production | intracellular pool / cell penetration (CPP activity) in PBMC (PBMC [1]): accumulate intracellular pools | peptide binding to coated TLR2 (TLR2 [2]; TLR2 coated 2 μg/ml): dose-dependent and saturable binding to TLR2

NCL(670)-HA: NCL-HA C-terminal deletion mutant of 670 residues with a residual GAR/RGG region
TNFα and IL-1β production from monocytes (monocytes; 24 hr): no longer stimulates monocytes; also recorded: apparently insufficient | TLR2 binding to coated NCL-HA mutants (summary experiment) (TLR2 [2]): weak binding

NCL(698)-HA: NCL-HA mutant in which 12 amino acids were deleted from the C-terminal end
TNFα and IL-1β production from monocytes (monocytes; 24 hr): continued to stimulate monocytes | TLR2 binding to coated NCL-HA mutants (summary experiment) (TLR2 [2]): bound

NCL-P3: control peptide covering the C-terminal 12 residues of NCL outside the GAR/RGG domain (DHKPQGKKTKFE; NCL-P3)
TNFα induction from monocytes, all concentrations (monocytes; soluble peptide 10 to 160 μg/ml, 24 hr): no TNFα induction | intracellular pool / cell penetration (CPP activity) in PBMC (PBMC [1]): no intracellular pool; also recorded: not a 12-AA non-GAR/RGG peptide | peptide binding to coated TLR2 (TLR2 [2]; TLR2 coated 2 μg/ml): no detectable binding; also recorded: lacked TLR2 binding | TLR2-mediated NF-κB activation by peptides (TLR2 [3]): not observed

RGGFGGGRGRGGGFRGRGRGG (FBRL-P2)
PBMC activation (TNFα) by FBRL peptides (PBMC [4]): activated PBMC

RGGFGGRGGGRGGRGGFGGRG (NCL-P6)
TNFα induction from monocytes (7 NCL peptides) (monocytes; 24 hr): induced TNFα; also recorded: minor adjuvant activity | intracellular pool / cell penetration (CPP activity) in PBMC (PBMC [1]): all lacked cell penetration; also recorded: diminished CPP activities | concentration at which saturated TLR2 binding was reached (TLR2 [2]; TLR2 coated 2 μg/ml): 80 µg/mL | peptide binding to coated TLR2 (TLR2 [2]; TLR2 coated 2 μg/ml): largely replicated NCL-P2 in TLR2 binding

RGGGFGGRGGFGDRGGRGGRGG (FBRL-P1)
PBMC activation (TNFα) by FBRL peptides (PBMC [4]): activated PBMC

B1: IPA1E2-P2+G: P2+G synthesized in fusion with the 30-AA peptide antigen IPA1E2 (peptide)
chain: GQGQLVKRPKIMRFISHLWLALESANSEKRGGFGGRGGGRGGRGGFGGRGGRGGFGGRGGFRGGRGG
modifications: IPA1E2-P2+G
notes: P2+G synthesized in fusion with the 30-AA peptide antigen IPA1E2
T cell proliferation / activation induced by peptide-loaded DC [5]: significantly increased T cell proliferation

RGGRGGFGGRG (not fully specified (N-terminus), Synthetic peptide) [NCL-P5 peptide, N-terminal biotin]
binding result [6]: binds

DHKPQGKKTKFE (not fully specified (N-terminus), Synthetic peptide) [NCL-P3 control peptide (C-terminal 12 residues of NCL), N-terminal biotin]
binding result [6]: no binding (tested: 0.64 to 1,000 ng/ml)

RGGFGGRGGG (not fully specified (N-terminus), Synthetic peptide; also called NCL-4) [NCL-P4 peptide, N-terminal biotin]
binding result [6]: no binding (tested: 200 µg/ml)

GGFGGRGGGRGGFGGRGGGRGGRGGFGGRGRG (not fully specified (N-terminus), Synthetic peptide) [NCL-P1 peptide (32 residues), N-terminal biotin]
binding result [6]: binds
